Laboratory results published in US20230115176A1 (Ra Pharmaceuticals, Inc., priority 2019, published 2023).
Converted amounts (≈) assume the structure as drawn.

How the values were obtained:
[1] = Kinetic solubility in PBS pH 7.4, HPLC-UV (Example 21, Table 27); format: physicochemical; details: phosphate buffered saline, aqueous buffer, kinetic from dmso stock, 0.5 M PBS, shaken minimum 24 h at approximately 25° C., HPLC-UV 270 nm
Method: Compounds were analyzed for kinetic solubility values using a standard kinetic solubility assay format. First, test compounds were dissolved in DMSO (Aldrich Chemical Co., Milwaukee, Wis., USA) at a concentration of 0.010 mol/L and used to prepare standard calibrators in DMSO solution. 500.0 μM, 250.0 μM, 125.0 μM, 62.5 μM, 31.2 μM, and 15.6 μM standards were prepared in a Greiner UV-Star clear V-bottom 96-well plate (Greiner-Bio One, Germany) for generating a standard curve. Using Alfa Aesar's Sodium phosphate, 0.2 M buffer solution, pH 7.4 (Alfa Aesar, Haverhill, Mass., USA), aqueous phosphate buffered saline (PBS) was prepared by diluting with Milli-Q water for a final concentration of 0.05 M. The pH of the solution was adjusted to 7.4±0.1 using 0.1 M hydrochloric acid (Fisher Scientific Waltham, Mass., USA) or 0.1 M aqueous sodium hydroxide (Fisher Scientific Waltham, Mass., USA).
10 μL of 0.010 mol/L DMSO test compound stock solutions were pipetted to separate 1.5 mL centrifuge tubes in triplicate. To these tubes, 190 μl of 0.05 M PBS was added. Each tube was gently vortexed for 5 sec. The tubes were shaken for a minimum of 24 h at approximately 25° C. After shaking, the solutions were transferred to 0.5 mL centrifuge filter tubes (MilliporeSigma, Burlington, Mass., USA) and centrifuged at 10,000 rpm for 5 min. After centrifugation, supernatants were collected and used for compound concentration analysis.
Compound concentrations in each solution were determined using high pressure liquid chromatography (HPLC) with ultraviolet (UV) detection and comparison with external standards. For HPLC, a Waters Acquity CSH Phenyl-Hexyl column (2.1 mm×50 mm, 1.7 μm) was used together with a generic gradient method on a Waters H-class system equipped with a diode array detector: Solvent A=0.1% formic acid in water, Solvent B=0.1% formic acid in acetonitrile (MilliporeSigma, Burlington, Mass., USA), flow=0.65 mL/min, (t=0 min: 95% A-5% B, t=4.75 min: 0% A-100% B, t=4.85 min: 0% A-100% B, t=4.86 min: 95% A-5% B, t=5 min: 95% A-5% B). UV quantifications were performed at 270 nm. Solution concentrations were calculated using Microsoft Excel.

[2] = target: T1, Human C5 (Homo sapiens, UniProt P01031); assay: Red blood cell (RBC) hemolysis assay, luminescent (Example 13, Table 22); format: cell-based; details: sheep EA cells, […] C5-depleted human serum, 0.5 nM human C5, 1 hour 37° C., luminescence; also: 1.5% C5-depleted human serum
T1 construct: purchased Complement Technology
Description: Compound CU0136 is a racemic mixture of Compound CU0186 and CU0187. Numbers in parenthesis following compound numbers indicate alternate enantiomers (as distinguished by retention time during chromatographical separation).

T1 sequence (P01031 19-1676): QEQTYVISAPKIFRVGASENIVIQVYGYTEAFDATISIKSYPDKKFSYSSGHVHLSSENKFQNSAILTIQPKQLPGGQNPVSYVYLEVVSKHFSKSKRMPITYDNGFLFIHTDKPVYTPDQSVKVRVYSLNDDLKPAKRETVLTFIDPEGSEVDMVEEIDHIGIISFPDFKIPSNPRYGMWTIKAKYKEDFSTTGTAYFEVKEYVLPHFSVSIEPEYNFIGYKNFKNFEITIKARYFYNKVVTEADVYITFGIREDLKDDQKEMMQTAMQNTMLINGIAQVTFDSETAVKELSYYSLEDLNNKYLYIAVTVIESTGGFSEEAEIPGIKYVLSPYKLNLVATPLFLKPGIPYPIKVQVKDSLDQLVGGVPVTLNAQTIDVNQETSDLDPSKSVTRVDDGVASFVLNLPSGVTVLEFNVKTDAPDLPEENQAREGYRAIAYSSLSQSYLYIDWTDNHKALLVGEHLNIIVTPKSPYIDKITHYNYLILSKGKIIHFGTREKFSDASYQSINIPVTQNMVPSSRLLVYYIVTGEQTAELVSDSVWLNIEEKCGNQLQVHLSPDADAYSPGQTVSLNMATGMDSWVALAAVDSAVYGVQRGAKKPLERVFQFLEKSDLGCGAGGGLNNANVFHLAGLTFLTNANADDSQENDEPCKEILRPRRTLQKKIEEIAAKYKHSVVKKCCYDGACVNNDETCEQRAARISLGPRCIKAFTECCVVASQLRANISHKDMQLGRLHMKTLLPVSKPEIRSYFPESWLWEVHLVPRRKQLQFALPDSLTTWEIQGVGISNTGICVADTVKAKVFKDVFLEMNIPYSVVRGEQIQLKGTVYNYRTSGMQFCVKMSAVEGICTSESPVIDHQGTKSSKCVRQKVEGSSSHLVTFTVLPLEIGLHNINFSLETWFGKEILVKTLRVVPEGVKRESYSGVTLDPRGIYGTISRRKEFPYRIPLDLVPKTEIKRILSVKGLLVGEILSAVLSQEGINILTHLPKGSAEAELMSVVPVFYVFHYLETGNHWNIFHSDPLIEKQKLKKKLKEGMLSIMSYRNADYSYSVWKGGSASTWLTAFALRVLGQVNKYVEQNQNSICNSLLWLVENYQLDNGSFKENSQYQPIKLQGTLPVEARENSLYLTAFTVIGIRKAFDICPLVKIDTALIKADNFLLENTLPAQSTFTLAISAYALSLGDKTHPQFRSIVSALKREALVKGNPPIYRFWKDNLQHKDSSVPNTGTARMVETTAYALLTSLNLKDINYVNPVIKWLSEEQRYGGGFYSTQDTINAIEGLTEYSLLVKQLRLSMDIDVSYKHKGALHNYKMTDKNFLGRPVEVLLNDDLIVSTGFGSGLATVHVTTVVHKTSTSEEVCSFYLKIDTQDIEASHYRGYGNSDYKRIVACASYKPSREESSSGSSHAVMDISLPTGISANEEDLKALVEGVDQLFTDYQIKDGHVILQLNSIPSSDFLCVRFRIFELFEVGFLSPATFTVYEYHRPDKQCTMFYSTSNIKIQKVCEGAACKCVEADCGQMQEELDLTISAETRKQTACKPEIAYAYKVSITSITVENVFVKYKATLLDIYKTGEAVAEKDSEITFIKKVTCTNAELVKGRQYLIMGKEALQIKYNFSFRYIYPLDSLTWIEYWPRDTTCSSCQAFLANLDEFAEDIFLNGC

SMILES | solubility kinetic [1] | IC50 [2]
CCCCCOc1cc(N2CCCN(Cc3ccc(CNC(=O)c4cnccn4)cc3OC)C2=O)ccc1OC [CU0677] | 71 µM (≈ 38.9 µg/mL) | –
CCCCCOc1cc(N2CCCN(Cc3ccnc4c3c(Cl)cn4C(C)C(=O)N3CN(C(C)C)C3)C2=O)ccc1OC (centres unmarked) [CU0620] | 275 µM (≈ 168 µg/mL) | –
CCCCCOc1cc(N2CCCN(Cc3ccc(CNC(=O)c4cocn4)cc3OC)C2=O)ccc1OC [CU0161] | 77 µM (≈ 41.3 µg/mL) | 22.9 nM
CCCCCOc1cc(N2CCCN(Cc3ccc(CC(=O)N4CCO[C@H](COC)C4)cc3OC)C2=O)ccc1OC [CU0196] | > 500 µM | 21.1 nM
CCCCCOc1cc(N2CCCN(Cc3ccc(Cc4nnn(C)n4)cc3OC)C2=O)ccc1OC [CU0212] | 52 µM (≈ 26.4 µg/mL) | 23.6 nM
CCCCCOc1cc(N2CCCN(Cc3cccc4c3ccn4CC(=O)N3CCOC(CN(C)C)C3)C2=O)ccc1OC (centres unmarked) [CU0247] | 376 µM (≈ 228 µg/mL) | 9.8 nM
CCCCCOc1cc(N2CCCN(Cc3ccnc4c3ccn4CC(=O)N(C)C3CCN(CC)C3)C2=O)ccc1OC (centres unmarked) [CU0257] | > 500 µM | 16 nM
CCCCCOc1cc(N2CCCN(Cc3ccnc4c3ccn4CC(=O)NC3CCN(C(C)C)CC3)C2=O)ccc1OC [CU0255] | 436 µM (≈ 264 µg/mL) | 19.4 nM
COc1cc(CCNC2CCN(C)C2=O)ccc1CN1CCCN(c2ccc(OC)c(OCCCC3CC3)c2)C1=O (centres unmarked) [CU0643] | > 500 µM | –
COc1ccc(N2CCCN(Cc3ccnc4c3ccn4CC(=O)N(C)C)C2=O)cc1OCCC[C@H]1C[C@@H]1C (racemic) [CU0752] | 75 µM (≈ 40 µg/mL) | –
COc1ccc(N2CCCN(Cc3ccnc4c3ccn4CC(=O)N(C)C)C2=O)cc1OCCCC(F)(F)C(F)(F)F [CU0256] | 22 µM (≈ 13.1 µg/mL) | 62.7 nM
CCCCCOc1cc(N2CCCN(Cc3cccc4c3ccn4CC(=O)N3CCN(C)C(=O)C3)C2=O)ccc1OC [CU0246] | 287 µM (≈ 165 µg/mL) | 10.6 nM
CCCCCOc1cc(N2CCCN(Cc3ccc(CC(=O)N(C)C4CCN(CC)C4)cc3OC)C2=O)ccc1OC (centres unmarked) [CU0177] | 351 µM (≈ 204 µg/mL) | 21.1 nM
CCCCCOc1cc(N2CCCN(Cc3ccnc4c3c(Cl)cn4CCN3CCCC3)C2=O)ccc1OC [CU0564] | 249 µM (≈ 138 µg/mL) | –
CCCCCOc1cc(N2CCCN(Cc3ccnc4c3c(Cl)cn4CCN3CCS(=O)(=O)CC3)C2=O)ccc1OC [CU0551] | 12 µM (≈ 7.42 µg/mL) | –
COc1ccc(N2CCCN(Cc3ccnc4c3c(Cl)cn4CC(=O)N3CCNC(=O)C3)C2=O)cc1OCCCC1CC1 [CU0522] | < 10 µM | –
COc1ccc(N2CCCN(Cc3ccnc4c3c(Cl)cn4CC(=O)N(C)C)C2=O)cc1OCCCC(C)(C)C [CU0595] | < 10 µM | –
CCCCCOc1cc(N2CCCN(Cc3ccc(CNC(=O)c4cnnn4C)cc3OC)C2=O)ccc1OC [CU0544] | 50 µM (≈ 27.5 µg/mL) | –
CCCCCOc1cc(N2CCCN(Cc3ccc(CNC(=O)c4ccnnc4)cc3OC)C2=O)ccc1OC [CU0503] | 62 µM (≈ 34 µg/mL) | –
COc1cc(CC(=O)N2CCOC(CN(C)C)C2)ccc1CN1CCCN(c2ccc(OC)c(OCCCC(C)(F)F)c2)C1=O (centres unmarked) [CU0170] | 435 µM (≈ 275 µg/mL) | 20.1 nM
CCCCCOc1cc(N2CCCN(Cc3ccc(CC(N)=O)cc3OC)C2=O)ccc1OC [CU0188] | 73 µM (≈ 34.3 µg/mL) | 19.9 nM
CCCCCOc1cc(N2CCCN(Cc3ccnc4c3c(C)cn4CC(=O)N(C)C)C2=O)ccc1OC [CU0258] | 462 µM (≈ 241 µg/mL) | 7.5 nM
COc1cc(CNC(C)=O)ccc1CN1CCCN(c2ccc(OC)c(OCCCC3CCC3)c2)C1=O [CU0546] | < 10 µM | –
CCCCCOc1cc(N2CCCN(Cc3cccc4c3ccn4CC(=O)NC3CNC(=O)C3)C2=O)ccc1OC (centres unmarked) [CU0243] | < 10 µM | 5.5 nM
CCCCCOc1cc(N2CCCN(Cc3ccnc4c3c(Cl)cn4CCOCCNC(C)=O)C2=O)ccc1OC [CU0559] | < 10 µM | –

SMILES | solubility kinetic [1] | IC50 [2]
CCCCCOc1cc(N2CCCN(Cc3ccc(CC(=O)N4CCO[C@H](CN(C)C)C4)cc3OC)C2=O)ccc1OC (stereo in doubt) [CU0187] | 417 µM (≈ 249 µg/mL) | 14.8 nM
CCCCCOc1cc(N2CCCN(Cc3ccc(Cc4nnnn4C)cc3OC)C2=O)ccc1OC [CU0211] | 112 µM (≈ 57 µg/mL) | 15.6 nM
CCCCCOc1cc(N2CCCN(Cc3ccc(Cc4cnccn4)cc3OC)C2=O)ccc1OC [CU0614] | 101 µM (≈ 51 µg/mL) | –
CCCCCOc1cc(N2CCCN(Cc3ccnc4c3c(Cl)cn4CC(=O)NC(C)C)C2=O)ccc1OC [CU0553] | 12 µM (≈ 6.67 µg/mL) | –
COc1ccc(F)cc1CN1CCCN(c2ccc(OC)c(OCCC3CCC3)c2)C1=O [CU0154] | 58 µM (≈ 25.7 µg/mL) | 22.6 nM
CCCCCOc1cc(N2CCCN(Cc3ccc(C4CNC(=O)O4)cc3OC)C2=O)ccc1OC (centres unmarked) [CU0611] | 170 µM (≈ 84.6 µg/mL) | –
CCCCCOc1cc(N2CCCN(Cc3ccc(CCN4CCN(C)CC4)cc3OC)C2=O)ccc1OC [CU0178] | 423 µM (≈ 228 µg/mL) | 26.7 nM
COc1cc(CC(=O)N(C)C)ccc1CN1CCCN(c2ccc(OC)c(OCCC[C@H]3C[C@H]3C)c2)C1=O (racemic) [CU0226] | 286 µM (≈ 150 µg/mL) | 15.7 nM
CCCCCOc1cc(N2CCCN(Cc3ccnc4c3c(Cl)cn4Cc3nnn(C)n3)C2=O)ccc1OC [CU0556] | < 10 µM | –
CCCCCOc1cc(N2CCCN(Cc3ccc(CNC(=O)c4cccnn4)cc3OC)C2=O)ccc1OC [CU0505] | 60 µM (≈ 32.9 µg/mL) | –
CCCCCOc1cc(N2CCCN(Cc3ccnc4c3c(Cl)cn4CCN3CCCS3(=O)=O)C2=O)ccc1OC [CU0577] | 13 µM (≈ 7.85 µg/mL) | –
CCCCCOc1cc(N2CCCN(Cc3ccnc4c3ccn4[C@@H]3CCN(C)C3=O)C2=O)ccc1OC [CU0667] | 139 µM (≈ 72.2 µg/mL) | –
COc1cc(CC(=O)N(C)C)ccc1CN1CCCN(c2ccc(OC)c(OCCCC(F)(F)C(F)(F)F)c2)C1=O [CU0214] | 209 µM (≈ 123 µg/mL) | 21.1 nM
CCCCCOc1cc(N2CCCN(Cc3cccc4c3ccn4CC(=O)NC3CCNC(=O)C3)C2=O)ccc1OC (centres unmarked) [CU0244] | 200 µM (≈ 115 µg/mL) | 6.7 nM
CCCCCOc1cc(N2CCCN(Cc3ccc(CCN4CCCCC4=O)cc3OC)C2=O)ccc1OC [CU0190] | 139 µM (≈ 74.7 µg/mL) | 41.4 nM
CCCCCOc1cc(N2CCCN(Cc3ccc(CC(=O)N4CCN=C(N(C)C)C4)cc3OC)C2=O)ccc1OC [CU0173] | 368 µM (≈ 213 µg/mL) | 11.4 nM
COc1cc(CC(=O)NC2CCN(C(C)C)CC2)ccc1CN1CCCN(c2ccc(OC)c(OCCCC(C)(F)F)c2)C1=O [CU0141] | 366 µM (≈ 231 µg/mL) | 13.1 nM
COc1cc(CC(=O)N(C)C)ccc1CN1CCCN(c2ccc(OC)c(OCC[C@@H]3C[C@@H]4CC[C@H]3C4)c2)C1=O [CU0213] | 17 µM (≈ 9.35 µg/mL) | 20.4 nM
CCC(F)(F)CCOc1cc(N2CCCN(Cc3ccc(CC(=O)NC4CCN(C(C)C)CC4)cc3OC)C2=O)ccc1OC [CU0207] | 415 µM (≈ 262 µg/mL) | 13.1 nM
CCCCCOc1cc(N2CCCN(Cc3ccc(C4CN(C)C(=O)O4)cc3OC)C2=O)ccc1OC (centres unmarked) [CU0618] | 179 µM (≈ 91.6 µg/mL) | –
CCCCCOc1cc(N2CCCN(Cc3ccnc4c3c(Cl)cn4Cc3nnnn3C)C2=O)ccc1OC [CU0570] | < 10 µM | –
CCCCCOc1cc(N2CCCN(Cc3ccnc4c3c(Cl)cn4CCOC(=O)N3CCS(=O)(=O)CC3)C2=O)ccc1OC [CU0563] | 19 µM (≈ 12.6 µg/mL) | –
CCCCCOc1cc(N2CCCN(Cc3ccc(Cc4ccccn4)cc3OC)C2=O)ccc1OC [CU0672] | 440 µM (≈ 222 µg/mL) | –
CCCCCOc1cc(N2CC[C@H](C)N(Cc3cccc4[nH]cc(Cl)c34)C2=O)ccc1OC [CU0623] | 364 µM (≈ 171 µg/mL) | –
